Measurements reported in patent US7329646B2, “Derivatives of the insulinotropic peptide exendin-4 and methods of production thereof” (Shanghai Huayi Bio-Lab Co., Ltd., priority 2001, dated 2008).

Key:
Format in all cases: in vivo
[1] = system: non-diabetic C57 BL/6J mice; assay: Blood glucose after glucose challenge in non-diabetic C57 BL/6J mice (Example 3); conditions: overnight-fasted mice; 20% glucose (200 μl) i.p. with simultaneous s.c. peptide: GLP-1 1 μg, exendin-4 0.2 μg, derivative 0.2 μg; 0, 30, 60, 120 minutes; FIG. 2
Experimental: Experiments were conducted to determine the effect on the blood glucose levels of non-diabetic C57 BL/6J mice of the exendin-4 (Leu14, Lys20, Arg40) peptide derivative relative to GLP-1 and the wild-type exendin-4 peptide. Overnight-fasted C57 BL/6J mice weighing 20 g were injected with a 20% glucose solution (200 μl) intra-peritoneally and simultaneously subcutaneously injected with either a saline control, GLP-1 (1 μg), exendin-4 (0.2 μg), or exendin-4 (Leu14, Lys20, Arg40) (0.2 μg). Blood glucose levels were determined using standard glucose determination kits at 0, 30, 60, and 120 minutes post-injection.

db/db diabetic mice = assay: Blood glucose after glucose challenge in db/db diabetic mice (Example 4); conditions: 2-hour-fasted db/db mice; 20% glucose (200 μl) i.p. with simultaneous s.c. GLP-1 4 μg, E4m 0.2 μg or Humalog 4 μg; 0-180 minutes; FIG. 3
Experimental: In order to extend the experimental results obtained in Example 3 with non-diabetic mice, experiments were also conducted to determine the effect on blood glucose levels of db/db diabetic mice of the exendin-4 (Leu14, Lys20, Arg40) peptide derivative relative to GLP-1 and Rapid Insulin.
Specifically, 2-hour-fasted db/db mice weighing 50 g were injected with a 20% glucose solution (200 μl) intra-peritoneally and simultaneously subcutaneously injected with either a saline control, GLP-1 (4 μg), exendin-4 (Leu14, Lys20, Arg40) (“E4m”)(0.2 μg), or the commercially available insulin, Humalog® (Eli Lilly and Company) (4 μg). Blood glucose levels were determined using standard glucose determination kits at 0, 30, 60, 120, and 180 minutes post-injection, and hypoglycemia (%) was calculated relative to the baseline (t=0) blood glucose level of animals receiving saline control.

C57 BL/6J mice = assay: Long-term blood glucose buffering with second glucose challenge at 240 minutes in C57 BL/6J mice (Example 5); conditions: FIG. 4; for effect on rise in blood glucose levels after the initial glucose injection: overnight-fasted mice, 20% glucose (200 μl) i.p. with simultaneous s.c. GLP-1 1 μg or E4m 0.2 μg; for activity on blood glucose after second glucose challenge at 240 minutes after the first injection: peptide given only at first injection (GLP-1 1 μg, E4m 0.2 μg), glucose measured at 240, 270, 300 minutes
Experimental: In order to determine the long-term ability of the exendin-4 derivative exendin-4 (Leu14, Lys20, Arg40) to buffer blood glucose levels, experiments were performed in which blood glucose levels in the presence of this exendin-4 derivative were determined at various times after an initial glucose challenge at 0 minutes and then a second glucose challenge at 240 minutes.
Specifically, overnight-fasted C57 BL/6J mice weighing 20 g were injected with a 20% glucose solution (200 μl) intra-peritoneally and simultaneously subcutaneously injected with either a saline control, GLP-1 (1 μg), or exendin-4 (Leu14, Lys20, Arg40) (0.2 μg). Then, at 240 minutes after the initial injection a second injection of 20% glucose solution (200 μl) intra-peritoneally was performed. Blood glucose levels were determined using standard glucose determination kits at 0, 30, 60, 240, 270, and 300 minutes after the first injection.

NOD mice [2] = assay: Blood glucose after glucose challenge in NOD mice (Example 6); conditions: overnight-fasted NOD mice
Experimental: Experiments to determine the effects on blood glucose levels of the exendin-4 derivative exendin-4 (Lys20, Arg40) were conducted in NOD mice provided by the Shanghai Laboratory Animal Center of Chinese Academy of Sciences. 0.9% sodium chloride solution and exendin-4 (Lys20, Arg40) were used in the assay. Plasma glucose testing kits were purchased from Shanghai Institute of Biological Products Ministry of Health.
Overnight-fasted NOD mice were divided into two groups. Mice in the first group were abdominally injected with 200 μl of a solution containing 40% glucose and 1 μg of exendin-4 (Lys20, Arg40). Mice in the second (control) group […] with a glucose solution.
30 μl of blood sample was taken from retro-orbital zeinous sinus immediately using a scaled capillary which was treated beforehand with heparin, placed into 300 μl of normal saline and mixed with the saline. Erythrocytes were removed by centrifugation at 3,000 rpm, while blood serum was kept for glucose determination. Different blood samples were taken as described above at 30 min, 60 min and 120 min, and blood serum was separated. Glucose concentrations of three plasma samples were determined according to the method described in the testing kits, and the decreasing effect of exendin-4 (Lys20, Arg40) on blood glucose concentration was determined.

NOD mice [3] = assay: Insulin secretion in NOD mice, insulin radioimmunoassay (Example 7); conditions: abdominal injection of 5 μg in 200 μl saline, 5, 10, 20, 30 min, data not shown
Experimental: In order to determine whether the ability of the exendin-4 derivative exendin-4 (Lys20, Arg40) to decrease blood glucose in NOD mice is an insulinotropic effect, experiments were conducted to measure the effect of administration of this compound on insulin levels. In these experiments, NOD mice were provided by Shanghai Laboratory Animal Center of Chinese Academy of Sciences. 40% glucose solution, 0.9% sodium chloride solution, and exendin-4 (Lys20, Arg40) were used in the experiment. Insulin radioimmunoassay kits were purchased from Shanghai Institute of Biological Products Ministry of Health.
NOD mice were divided into two groups. 50 μl of blood sample was taken from the plexus venosus of the eye using a scaled capillary, the inner wall of which was rinsed with 1 mg/mL heparin and was air-dried beforehand. Mice in the two groups were abdominally injected with either 200 μl normal saline alone, or with a similar amount of saline containing 5 μg exendin-4 (Lys20, Arg40), respectively at t=0. Different blood samples were taken as described above at 5 min, 10 min, 20 min and 30 min. […] Insulin concentrations of different samples were determined by following the methods described in the radioimmunoassay kit, and the stimulating effect of exendin-4 (Lys20, Arg40) on insulin secretion was determined.

Healthy C57 BL mice = assay: C-peptide secretion in healthy C57 BL mice, C-peptide radioimmunoassay (Example 8); conditions: abdominal injection of 5 μg in 200 μl saline, data not shown
Experimental: In order to further investigate the insulinotropic properties of the exendin-4 derivative exendin-4 (Lys20, Arg40), experiments were conducted to measure the effect of administration of this compound on the production of C-peptide, which, as discussed previously, is produced in equal amounts as insulin by the cleavage of proinsulin. Healthy C57 BL mice were provided by Shanghai Laboratory Animal Center of Chinese Academy of Sciences. 40% glucose solution, 0.9% sodium chloride solution and exendin-4 (Lys20, Arg40) were used in the experiments. Insulin radioimmunoassay kits and C-peptide radioimmunoassay kits were purchased from Shanghai Institute of Biological Products Ministry of Health.
Healthy C57 BL mice were divided into two groups. 50 μl of blood sample was taken from plexus venosus of the eye using a scaled capillary, the inner wall of which was rinsed with 1 mg/mL heparin and was air-dried beforehand. Mice in two groups were abdominally injected with 200 μl normal saline alone, or with a similar amount of saline containing 5 μg of exendin-4 (Lys20, Arg40), respectively at t=0. […] The C-peptide concentration in each sample was determined by following the method described by the radioimmunoassay kit, and the stimulating effect of exendin-4 (Lys20, Arg40) on C-peptide secretion was determined.

Row | Substance | effect on blood glucose levels after glucose challenge [1] | effect on blood glucose levels after glucose challenge (db/db diabetic mice) | effect on rise in blood glucose levels after the initial glucose injection (C57 BL/6J mice) | activity on blood glucose after second glucose challenge at 240 minutes after the first injection (C57 BL/6J mice) | time after administration up to which dramatic fluctuations in glucose concentration are prevented (NOD mice [2]; 200 μl 40% glucose with 1 μg peptide, abdominal injection) | blood glucose concentration after glucose challenge (NOD mice [2]; abdominal injection of 200 μl 40% glucose with 1 μg peptide, 30, 60, 120 min, data not shown) | stimulating effect on insulin secretion (NOD mice [3]) | stimulating effect on C-peptide secretion (Healthy C57 BL mice)
1 | Glucagon-like peptide-1 (HAEGTFTSDVSSYLEGQAAKEFIAWLVKGR; listed as Homo sapiens) [GLP-1, peptide hormone secreted by intestinal cells that enhances insulin secretion, reference compound] | acted to buffer changes in blood glucose levels | resulted in the buffering of changes in blood glucose levels | drastically reduced | GLP-1 activity is essentially abolished | – | – | – | –
2 | Humalog®: commercially available insulin, Humalog® (Eli Lilly and Company) | – | resulted in the buffering of changes in blood glucose levels | – | – | – | – | – | –
3 | exendin-4 (Leu14, Lys20, Arg40) | produced a response profile virtually identical to that seen with the wild-type exendin-4 sequence | resulted in the buffering of changes in blood glucose levels | essentially eliminated | activity at times of 240 or more minutes after first injection is preserved | – | – | – | –
4 | exendin-4 (Lys20, Arg40) | – | – | – | – | at least 2 hours | never showed a notable increase in blood glucose | significantly stimulates insulin secretion | significantly stimulates the secretion of C-peptide relative to the control
5 | exendin-4 [wild-type exendin-4] | acted to buffer changes in blood glucose levels | – | – | – | – | – | – | –
